How the values were obtained:
IRAK3 = target: T1, IRAK3 (Homo sapiens, UniProt Q9Y616); assay: IRAK endogenous HTRF degradation assay (Total-IRAK3 HTRF kit); format: cell-based; design: IRAK Endogenous HTRF Degradation Assay; endogenous in cells; conditions: endogenous IRAK3, overnight incubation; % Dmax = 100 − Ymin
T1 sequence (Q9Y616 1-596): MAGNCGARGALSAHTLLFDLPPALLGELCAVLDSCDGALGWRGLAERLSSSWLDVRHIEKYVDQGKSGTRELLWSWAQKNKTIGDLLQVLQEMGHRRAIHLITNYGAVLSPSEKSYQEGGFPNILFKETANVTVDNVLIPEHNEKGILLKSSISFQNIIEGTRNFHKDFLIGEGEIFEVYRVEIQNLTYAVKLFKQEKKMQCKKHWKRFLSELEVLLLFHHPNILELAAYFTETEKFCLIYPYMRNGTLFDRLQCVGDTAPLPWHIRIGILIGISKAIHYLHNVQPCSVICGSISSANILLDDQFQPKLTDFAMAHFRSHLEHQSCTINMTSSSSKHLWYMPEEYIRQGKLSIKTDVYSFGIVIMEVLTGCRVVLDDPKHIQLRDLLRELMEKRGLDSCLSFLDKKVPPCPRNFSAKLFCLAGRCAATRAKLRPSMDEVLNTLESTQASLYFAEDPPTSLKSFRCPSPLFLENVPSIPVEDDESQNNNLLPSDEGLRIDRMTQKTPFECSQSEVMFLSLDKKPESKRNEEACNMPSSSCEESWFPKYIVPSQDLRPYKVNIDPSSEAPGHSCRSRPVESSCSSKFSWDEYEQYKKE
Protocol: Example B2. IRAK Endogenous HTRF Degradation Assay
Cells (~50k) were plated in Cisbio 96-well low volume white plates (Cisbio: cat #66PL96005). Compounds were dissolved in DMSO and a 3-fold serial dilution was performed using a TECAN D300E. Cells were incubated with the compound overnight. Total-IRAK3 HTRF kit from Cisbio was used for degradation analysis (Cisbio: 63ADK101PEH). Cryptate and D2 antibodies were diluted in Detection buffer as per manufacturers recommendation. Then 2 μL of each solution was added to 16 μL lysate. Buffer control (lysis buffer detection buffer), Cryptate control (lysis buffer+cryptate antibody+detection buffer), and Negative control (lysis buffer+cryptate antibody+D2 antibody) were made as per manufacturers recommendation. Post incubation with antibodies the HTRF signal was measured using a Perkin Elmer Envision reader and the HTRF signal was calculated using formula: (Emission at 665 nm/Emission at 615 nm)*10,000. All HTRF values were normalized to the average value of DMSO. The average value of the DMSO control wells were set to equal 100% of the relative IRAK3 protein levels. Normalized luminescence values were plotted on a graph as a function of compound concentration. Compound concentration was plotted on the x-axis and the corresponding normalized IRAK3 protein levels on the y-axis. The EC50 value (the half-maximum effective concentration) of a compound for the degradation of the IRAK3 was calculated using a four-parameter logistic model (sigmoidal dose-response model) (FIT=(A+{(B−A)/1+[(C/x)D]})) where C is the inflection point (EC50), D is the […], and A and B are the low and high limits of the fit, respectively). The Ymin was calculated by determining the lowest percentage of target protein remaining following compound treatment. Dmax was calculated from Ymin (% Dmax=100−Ymin).
Using these assays, IC50, Dmax, EC50, and DC50 values of the following compounds were determined. Dmax is defined as the maximum percent degradation achieved and DC50 is the concentration at which 50% degradation is achieved.

IRAK3-ePL = target: T2, IRAK3-ePL (Homo sapiens, UniProt Q9Y616); assay: IRAK3-ePL overexpressing degradation assay; format: cell-based; conditions: IRAK3-ePL Lenti-X 293T CRBN/GSPT1 G575N cells, overnight incubation, top dose 10 μM
T2 construct: expressed in transfected cells; host or cells: 293T CRBN OE/GSPT1 G575N KI cells, lentiviral transduction, puromycin selection
Protocol: Example B1. IRAK3-ePL Overexpressing Degradation Assay
Stable cell lines were generated by the following protocol. 3×10^5 Lenti-X 293T cells (Clonetech) were plated in 0.8 mL of media in a 12-well plate and incubated overnight at 37° C./5% CO2. Packaging plasmid (0.4 μg, pMD), envelope plasmid (0.4 μg, pSP), and lentiviral transfer IRAK3-ePL plasmid (0.8 μg, IRAK3 sequence NM_007199.3) were mixed in 0.1 mL of Opti-MEM and incubated for 5 min. Simultaneously, 2.4 μL of Lipofectamine 2000 (Invitrogen) was added to 0.1 mL of Opti-MEM (Gibco) and incubated for 5 min. The plasmid DNA and lipofectamine were combined and the mixture was allowed to incubate for 20 min. DNA:Lipofectamine Opti-MEM mixtures were then added to previously plated cells dropwise and the cells were incubated for ~16 h at 37° C./5% CO2. Following incubation, the media was removed and 1.2 mL of fresh media was added per well. Lenti-X 293T cells were incubated for ~30 h at 37° C./5% CO2. […] Following incubation, media was removed from the Lenti-X 293T wells and passed through a […]. Part of the viral supernatant was used to transduce cells and the rest was stored at −80° C. Viruses were then added individually (0.5 mL virus) to each well of the 293T^CRBN OE/GSPT1 G575N KI cells, followed by addition of polybrene (10 mg/mL Millipore) to each well at a final concentration of 5.0 μg/mL. Cells were incubated for ~24 h at 37° C./5% CO2. After aspirating media off plates, cells were washed with DPBS, trypsinized and plated in a 10 cm dish in 15 mL of media and 1 μg/mL puromycin. Following incubation of cells for ~72 h at 37° C./5% CO2, media was aspirated off plates, and cells were washed with DPBS and trypsinized. The cells were plated in a 15 cm dish in 40 mL of media with 1.0 μg/mL Puromycin (Gibco) and incubated for ~72 h at 37° C./5% CO2. Following incubation, media was removed and cells were washed with DPBS and trypsinized. The majority of cells were resuspended in Invitrogen freezing media and stored away (~6-8×10^6 cells/vial).
IRAK3-ePL cellular dose response curve degradation assays were performed by the following protocol. Compounds to be tested were dispensed into a white 384-well tissue-culture treated plate using an acoustic liquid handler. Dilutions were prepared based on a 25 μL assay volume in duplicate 10 point 3-fold serial dilutions starting with a 10 μM dose. Negative control wells were included, which only contain 0.2% DMSO to calculate 100% signal. Positive control wells containing 30 μM Ataluren (luciferase inhibitor) were included to calculate the background signal level. All wells were backfilled to a final DMSO concentration of 0.2% to ensure DMSO uniformity across wells. IRAK3-ePL expressing cells (IRAK3-ePL Lenti-X 293T^CRBN/GSPT1 G575N) were washed, trypsinized, counted, and resuspended in fresh DMEM (Gibco) to give a cell concentration of 200,000 cells/mL. 25 μL of cells (5,000 cells/well) were dispensed into the wells of the 384-well plate prespotted with compounds in the previous step and incubated overnight at 37° C./5% CO2. Following incubation, the 384-well plate was taken out of the incubator and left at room temperature for 30 min. InCELL hunter reagent was prepared according to manufacturer's instructions (EA reagent, lysis buffer, and substrate reagent in a 1:1:4 ratio, Cat #96-0002, DiscoverX), which was added to the 384-well plate 25 μL per well. Following the incubation of the plate for 1 h at room temperature, the luminescence signal was read using a ViewLux plate reader. Data was processed and analyzed in ActivityBase software. In short, the average luminescence values of the positive control wells were subtracted from the rest of the wells for background correction, and all luminescence values were normalized to the DMSO control wells. The average value of the DMSO control wells was set to equal 100% of the relative IRAK3-ePL protein levels. […]

`Cc1ncsc1-c1ccc(CNC(=O)[C@@H]2C[C@@H](O)CN2C(=O)[C@@H](NC(=O)COCCOCCOCCOCCOCCN2CCC(n3cc(-c4cnc(N)c(O[C@H](C)c5c(Cl)ccc(F)c5Cl)c4)cn3)CC2)C(C)(C)C)cc1` [Compound 5, (2S,4R)-1-((S)-20-(4-(4-(6-amino-5-((R)-1-(2,6-dichloro-3-fluorophenyl)ethoxy)pyridin-3-yl)-1H-pyrazol-1-yl)piperidin-1-yl)-2-(tert-butyl)-4-oxo-6,9,12,15,18-pentaoxa-3-azaicosanoyl)-4-hydroxy-N-(4-(4-methylthiazol-5-yl)benzyl)pyrrolidine-2-carboxamide] showed a Dmax (IRAK3) of 34%, a Dmax (IRAK3-ePL; HEK-293T, maximum percentage loss of target protein) of 23% and a DC50 (IRAK3-ePL; read-out: IRAK3 ePL degradation EC50) of over 10 µM.

From patent publication US20260234124A1, “Substituted Pyrazolyl-Pyridinyl Compounds as Ligand Directed Degraders of IRAK3” (Celgene Corporation, priority 2022, published 2026)
